Test results: patent US20070225363A1, “Methods and Agents for Inhibiting Dynamin-Dependent Endocytosis” (the University of Newcastle Research Associates Ltd., priority 2003, published 2007)
“Also recorded” adds a separate entry of the source.

Experiments:
RalA = biological target: T1, RalA (Homo sapiens, UniProt P11233); assay: [α-32P]-GTP binding to small G protein RalA; details: data not shown
T1 sequence (P11233 1-206): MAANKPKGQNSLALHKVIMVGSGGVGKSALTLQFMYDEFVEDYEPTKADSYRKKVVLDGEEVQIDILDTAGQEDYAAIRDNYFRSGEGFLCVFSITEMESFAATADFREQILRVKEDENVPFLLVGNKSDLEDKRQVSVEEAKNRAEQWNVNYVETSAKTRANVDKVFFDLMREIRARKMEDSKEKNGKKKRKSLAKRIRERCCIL
Protocol: Competition of these drugs with GTP for the active site of 4 small G proteins (Rab3A, Ras, Arf2, RalA) was also tested.

[1] = test system: isolated nerve terminals (synaptosomes); assay: Glutamate release assay (exocytosis) in synaptosomes; assay type: cell-based, rat; details: 30 mM KCl
Protocol: The glutamate release assay was performed using enzyme-linked fluorescent detection of released glutamate (Cousin and Robinson., 2000a, b). Briefly, synaptosomes (0.6 mg in 2 ml) were resuspended in either plus (1.2 mM CaCl2) or minus (1 mM EGTA) Ca^2+ Krebs-like solution (118.5 mM NaCl, 4.7 mM KCl, 1.18 mM MgCl2, 0.1 mM Na2HPO4, 20 mM Hepes, 10 mM glucose, pH 7.4) at 37° C. Experiments were started after addition of 1 mM NADP^+. After 1 minute 50 U of glutamate dehydrogenase was added and the synaptosome suspension was stimulated after 4 minutes with 30 mM KCl. Increases in fluorescence due to production of NADPH were monitored in a Perkin-Elmer LS-50B spectrofluorimeter at 340 nm excitation and 460 nm emission. Experiments were standardised by the addition of 4 nmol of glutamate. Data is presented as Ca^2+-dependent glutamate release, calculated as the difference between release in plus and minus Ca^2+ solution for identical stimulation conditions.

dynamin I = dynamin I (Ovis aries, UniProt A0ACI6NZN1); assay: [α-32P]-GTP binding assay, dynamin I; set-up: species or system sheep
Protocol: The [α-^32P]-GTP-binding assay was performed in the wells of a 96-well microtitre plate. Dynamin (0.2 μg/well) was added to GTPase buffer and incubated for 10 min at 4 C in the dark. [α-^32P]-GTP (2 μCi/tube) was then added to the reaction and incubated for a further 10 min at 4 C. in the dark. The microtitre plate was then irradiated with a short wavelength ultraviolet lamp at […] for 30 min at a distance of 8 cm. The specificity of photolabelling was determined by comparing the labelling in the presence and absence of 1 mM cold GTP. Samples were then applied to nitrocellulose membranes by aspiration through the wells of a 24 well slot blotter. The nitrocellulose was washed 3 times with PBS and dried. Bound nucleotide was detected by a phosphorimager (Molecular Dynamics).

[2] = test system: isolated nerve terminals (synaptosomes); assay: Synaptic vesicle endocytosis, FM2-10 uptake in synaptosomes; assay type: cell-based, rat; details: 100 μM, synaptosomes
Protocol: Isolated nerve terminals (synaptosomes) were prepared from rat cerebral cortex by centrifugation on discontinuous percoll gradients (Dunkley et al., 1986). Fractions 3 and 4 were pooled and used in all experiments. Endocytosis was measured using uptake of the fluorescent dye FM2-10 as previously described (Cousin and Robinson 2000a). Synaptosomes (0.6 mg in 2 ml) were incubated for 5 min at 37° C. in plus or minus Ca^2+ Krebs-like solution. FM2-10 ([…]) was added 1 min before stimulation with 30 mM KCl (S1). As FM2-10 is taken up by vesicles via endocytosis at the S1 phase of stimulation, synaptosomes were incubated with antagonists during this phase. […] After 2 min of stimulation synaptosomes were washed twice in plus Ca^2+ solution containing 1 mg/ml bovine serum albumin. The washing steps remove non-internalised FM2-10 and the tyrphostins. Washed synaptosomes were resuspended in plus Ca^2+ solution at 37° C., transferred to a fluorimeter cuvette and stimulated with a standard addition of 30 mM KCl (S2). The standard S2 stimulation releases all accumulated FM2-10 and allows endocytosis to be measured as the decrease in FM2-10 fluorescence due to dye release into solution (excitation 488 nm, emission 540 nm).
Endocytosis was calculated as the decrease in absolute fluorescence stimulated by 30 mM KCl at S2. […] Retrieval efficiency is a more accurate measure of endocytosis since it takes into account the amount of prior exocytosis. Retrieval efficiency was calculated as endocytosis/exocytosis, where endocytosis is defined as above and exocytosis as Ca^2+-dependent glutamate release after 2 min of stimulation. The retrieval efficiency value was normalised to a ratio of 1.0 for 30 mM KCl.

dynamin I, sequence (A0ACI6NZN1 entry or part of it): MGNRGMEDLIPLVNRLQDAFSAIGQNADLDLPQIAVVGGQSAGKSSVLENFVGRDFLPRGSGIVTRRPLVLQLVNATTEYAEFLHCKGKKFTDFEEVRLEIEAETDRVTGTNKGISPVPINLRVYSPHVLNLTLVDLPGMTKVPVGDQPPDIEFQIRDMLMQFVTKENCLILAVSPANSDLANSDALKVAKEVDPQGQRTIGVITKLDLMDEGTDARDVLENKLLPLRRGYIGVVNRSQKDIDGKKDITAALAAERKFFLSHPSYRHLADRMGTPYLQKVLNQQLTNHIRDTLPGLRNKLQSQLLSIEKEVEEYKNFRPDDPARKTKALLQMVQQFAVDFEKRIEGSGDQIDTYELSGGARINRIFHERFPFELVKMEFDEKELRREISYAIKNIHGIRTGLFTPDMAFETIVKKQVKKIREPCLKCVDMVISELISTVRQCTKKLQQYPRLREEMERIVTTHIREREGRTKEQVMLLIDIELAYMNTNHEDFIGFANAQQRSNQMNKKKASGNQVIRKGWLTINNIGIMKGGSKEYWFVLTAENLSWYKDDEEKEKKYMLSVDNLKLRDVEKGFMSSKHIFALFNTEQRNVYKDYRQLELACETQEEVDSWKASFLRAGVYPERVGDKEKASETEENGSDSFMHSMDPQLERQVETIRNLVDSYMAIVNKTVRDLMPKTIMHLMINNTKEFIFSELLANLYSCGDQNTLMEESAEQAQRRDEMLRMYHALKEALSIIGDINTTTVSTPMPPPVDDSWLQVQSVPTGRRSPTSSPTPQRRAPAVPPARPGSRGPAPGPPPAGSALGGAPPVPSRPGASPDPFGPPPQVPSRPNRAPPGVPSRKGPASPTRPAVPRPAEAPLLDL

For `N#C/C(=C\c1ccc(O)c(O)c1)C(=O)NCCCNC(=O)/C(C#N)=C/c1ccc(O)c(O)c1` [bis-tyrphostin], the “effect on [α-32P]-GTP binding to RalA” value (RalA) was “neither drug affected”, the “exocytosis (Ca2+-dependent glutamate release)” value [1] was “no effect” and the “[α-32P]-GTP binding to dynamin I in the presence of drug” value (dynamin I) was “not seen to decrease; also recorded: not affected”. For the same compound, the “inhibition of synaptic vesicle endocytosis (SVE)” value [2] was “specifically decreases endocytosis” and the “inhibition of synaptic vesicle endocytosis (SVE)” value ([2]; listed as Bis-tyrphostin) was “significantly inhibited”.
